These results are taken from article PMC6202380 (2018).

Assay [1] has as its system F-CEB25^L111-T (DNA, G4) AAGGGTGGGTGGGTGGGT
Kind of assay: FRET melting. The settings on record: 1 mM K+, 99 mM Li+; 10 mM LiAsO2Me2, pH 7.2 (K-1); 0.2 µM DNA, 1 µM ligand.

In assay [2] the test system is hras-1 (DNA, G4) TCGGGTTGCGGGCGCAGGGCACGGGCG
In words: CD spectroscopy. The note with it: 100 mM K+; K-100 buffer, pH 7.2, 20 °C; 5 µM DNA, 10 µM ligand.

The test system of assay [3] is 22AG (DNA, G4) AGGGTTAGGGTTAGGGTTAGGG
In words: CD spectroscopy. The settings on record: 100 mM K+; K-100 buffer, pH 7.2, 20 °C; 5 µM DNA, 10 µM ligand.

The test system of assay [4] is CEB25^WT (DNA, G4) AAGGGTGGGTGTAAGTGTGGGTGGGT
Kind of assay: fluorimetric titration, independent-site model. The settings on record: 100 mM K+; K-100 buffer, pH 7.2; 2 µM ligand; Table 2 prints 0.54, text gives 0.54 to CEB25^L111.

In assay [5] the test system is CEB25^L111 (DNA, G4) AAGGGTGGGTGGGTGGGT
In words: fluorimetric titration, independent-site model. The settings on record: 100 mM K+; K-100 buffer, pH 7.2; 2 µM ligand; value from text, Table 2 prints 1.5 for this oligonucleotide.

The test system of assay [6] is 22CTA (DNA, G4) AGGGCTAGGGCTAGGGCTAGGG
Kind of assay: fluorimetric titration, independent-site model. The settings on record: 100 mM K+; 10 mM LiAsO2Me2, pH 7.2 (K-100); 2 µM ligand.

For assay [7], the system named is ds26 (DNA, duplex) CAATCGGATCGAATTCGATCCGATTG
In words: fluorimetric titration, independent-site model. The settings on record: 100 mM K+; 10 mM LiAsO2Me2, pH 7.2 (K-100); 2 µM ligand.

The subject of assay [8] is ^BrU-22AG (DNA, G4, 5-bromouracil (replacing T) at 5, 6, 11, 12, 17, 18) AGGGTTAGGGTTAGGGTTAGGG
In words: PAGE of UVA photoadduct. The note with it: 100 mM K+; covalent; K-100 buffer, pH 7.2; 5 µM DNA, 25 µM ligand, 365 nm.

The test system of assay [9] is bcl2Mid (DNA, G4) GGGCGCGGGAGGAATTGGGCGGG
In words: fluorimetric titration, independent-site model. The settings on record: 100 mM K+; 10 mM LiAsO2Me2, pH 7.2 (K-100); 2 µM ligand.

For assay [10], the system named is 22AG (DNA, G4) AGGGTTAGGGTTAGGGTTAGGG
In words: fluorimetric titration, independent-site model. The settings on record: 2 µM ligand.

For assay [11], the system named is hras-1 (DNA, G4) TCGGGTTGCGGGCGCAGGGCACGGGCG
In words: fluorimetric titration, independent-site model. The settings on record: 100 mM K+; 10 mM LiAsO2Me2, pH 7.2 (K-100); 2 µM ligand.

Assay [12] deals with Pu24T (DNA, G4) TGAGGGTGGTGAGGGTGGGGAAGG
Kind of assay: fluorimetric titration, independent-site model. The settings on record: 100 mM K+; 10 mM LiAsO2Me2, pH 7.2 (K-100); 2 µM ligand.

In assay [13] the test system is 22AG (DNA, G4) AGGGTTAGGGTTAGGGTTAGGG
Kind of assay: fluorimetric titration. The note with it: 100 mM K+; K-100 buffer, pH 7.2; 2 µM ligand; binding constant could not be determined.

In the case of `C[n+]1cc(NC(=O)c2ccc3ccc4ccc(C(=O)Nc5cc6ccccc6[n+](C)c5)nc4c3n2)cc2ccccc21`, the ΔT½ in assay [1] is 13 °C.

As to `NCCCN1CCNCc2ccc3cc(ccc3c2)CNCCOCCNCc2ccc3cc(ccc3c2)CNCC1`, the binding result in assay [2] and in [3] was “yes” in each case.

Consider `NCCN(CCN)CCNCCCCc1ccc2ccc3cccc4ccc1c2c34`, for which the binding entry in assay [2] and in [3] was “yes” each time.

As to `c1cc2ccc3ccc(CCCCNCCN4CCNCc5ccc6cc(ccc6c5)CNCCN(CCNCCCCc5ccc6ccc7cccc8ccc5c6c78)CCNCc5ccc6cc(ccc6c5)CNCC4)c4ccc(c1)c2c34`, the Ka in assay [4] is 0.54 10^6 M^-1; in assay [5], 540000 M⁻¹; in assay [6], 3.9e+06 M⁻¹; in [7], 480000 M⁻¹; in assay [9], 1.8e+06 M⁻¹; in assay [10] (100 mM K+, 10 mM LiAsO2Me2, pH 7.2 (K-100)), 1.8e+06 M⁻¹. Moreover, the Ka in assay [10] (100 mM Na+, 10 mM LiAsO2Me2, pH 7.2 (Na-100)) came out at 1.4e+06 M⁻¹; in [11], 1.1e+06 M⁻¹; in [12], 1.5e+06 M⁻¹. The same compound displayed a ΔT½ in [1] of 11 °C. For the same compound, in assay [8], the binding result is “yes”.

For `c1cc2ccc3ccc(CCCCNCCN4CCNCc5ccc6cc(ccc6c5)CNCCOCCNCc5ccc6cc(ccc6c5)CNCC4)c4ccc(c1)c2c34`, the binding entry in [2], in [8] and in [13] was “yes” in each case.
